Reference: PubChem BioAssay (NCI)
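96-well plates; 48 h exposure; 5 concentrations. Endpoints by linear interpolation between flanking doses. Not reached: highest tested concentration assigned. The concentration for 50% growth inhibition is given as GI50. TGI is the concentration that stops growth completely.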

What was measured:
Experiment in all cases: NCI anticancer screen, dose series, 48 h
OVCAR-3 ovarian = test system: OVCAR-3 ovarian
CAKI-1 renal = test system: CAKI-1 renal
SNB-75 CNS = test system: SNB-75 CNS
SN12C renal = test system: SN12C renal
SF-539 CNS = test system: SF-539 CNS
MALME-3M melanoma = test system: MALME-3M melanoma
786-0 renal = test system: 786-0 renal
SK-MEL-2 melanoma = test system: SK-MEL-2 melanoma
HOP-62 NSCLC = test system: HOP-62 NSCLC
OVCAR-8 ovarian = test system: OVCAR-8 ovarian
NCI-H23 lung = test system: NCI-H23 lung
IGROV1 ovarian = test system: IGROV1 ovarian
HOP-92 NSCLC = test system: HOP-92 NSCLC
NCI-H226 lung = test system: NCI-H226 lung
NCI/ADR-RES ovarian = test system: NCI/ADR-RES ovarian
EKVX NSCLC = test system: EKVX NSCLC
T-47D breast = test system: T-47D breast
HCC-2998 colon = test system: HCC-2998 colon
SK-OV-3 ovarian = test system: SK-OV-3 ovarian
M14 melanoma = test system: M14 melanoma
PC-3 prostate = test system: PC-3 prostate
SF-295 CNS = test system: SF-295 CNS
DU-145 prostate = test system: DU-145 prostate
MDA-MB-468 breast = test system: MDA-MB-468 breast
SK-MEL-5 melanoma = test system: SK-MEL-5 melanoma
MCF7 breast = test system: MCF7 breast
TK-10 renal = test system: TK-10 renal
UO-31 renal = test system: UO-31 renal
SK-MEL-28 melanoma = test system: SK-MEL-28 melanoma
SNB-19 CNS = test system: SNB-19 CNS
BT-549 breast = test system: BT-549 breast
HL-60(TB) leukemia = test system: HL-60(TB) leukemia
HT29 colon = test system: HT29 colon
NCI-H460 lung = test system: NCI-H460 lung
ACHN renal = test system: ACHN renal
MOLT-4 leukemia = test system: MOLT-4 leukemia
UACC-62 melanoma = test system: UACC-62 melanoma
A498 renal = test system: A498 renal
MDA-MB-435 = test system: MDA-MB-435
SR leukemia = test system: SR leukemia
KM12 colon = test system: KM12 colon
U251 CNS = test system: U251 CNS
HCT-116 colon = test system: HCT-116 colon
LOX IMVI melanoma = test system: LOX IMVI melanoma
COLO 205 colon = test system: COLO 205 colon
RPMI-8226 leukemia = test system: RPMI-8226 leukemia
UACC-257 melanoma = test system: UACC-257 melanoma
OVCAR-4 ovarian = test system: OVCAR-4 ovarian
NCI-H522 lung = test system: NCI-H522 lung
K-562 leukemia = test system: K-562 leukemia
SF-268 CNS = test system: SF-268 CNS
OVCAR-5 ovarian = test system: OVCAR-5 ovarian
HS 578T breast = test system: HS 578T breast
HCT-15 colon = test system: HCT-15 colon
MDA-MB-231 breast = test system: MDA-MB-231 breast
CCRF-CEM leukemia = test system: CCRF-CEM leukemia
A549 NSCLC = test system: A549 NSCLC
SW-620 colon = test system: SW-620 colon

## Cc1cc2nc3c4ccccc4n(CC4=NCCN4)c3nc2cc1C
OVCAR-3 ovarian
  GI50: 5.89 µM
  TGI: 22.6 µM
CAKI-1 renal
  GI50: 1380 nM
  TGI: 11.7 µM
SNB-75 CNS
  GI50: 1490 nM
  TGI: 10.7 µM
SN12C renal
  GI50: 1590 nM
  TGI: 12.2 µM
SF-539 CNS
  GI50: 1590 nM
  TGI: 3.06 µM
MALME-3M melanoma
  GI50: 1400 nM
  TGI: 2850 nM
786-0 renal
  GI50: 3.48 µM
  TGI: 13.3 µM
SK-MEL-2 melanoma
  GI50: 15.9 µM
  TGI: 30.5 µM
HOP-62 NSCLC
  GI50: 2340 nM
  TGI: 11.8 µM
OVCAR-8 ovarian
  GI50: 2530 nM
  TGI: 19.3 µM
NCI-H23 lung
  GI50: 2640 nM
  TGI: 13.1 µM
IGROV1 ovarian
  GI50: 1990 nM
  TGI: 15.4 µM
HOP-92 NSCLC
  GI50: 2840 nM
  TGI: 17.5 µM
NCI-H226 lung
  GI50: 1440 nM
  TGI: 5 µM
NCI/ADR-RES ovarian
  GI50: 3.5 µM
  TGI: 17.8 µM
EKVX NSCLC
  GI50: 10.3 µM
  TGI: 22.5 µM
T-47D breast
  GI50: 3.07 µM
  TGI: 15.5 µM
HCC-2998 colon
  GI50: 2690 nM
  TGI: 15.7 µM
SK-OV-3 ovarian
  GI50: 2430 nM
  TGI: 9.95 µM
M14 melanoma
  GI50: 3.1 µM
  TGI: 14.1 µM
PC-3 prostate
  GI50: 1750 nM
  TGI: > 100 µM
SF-295 CNS
  GI50: 1120 nM
  TGI: 10.7 µM
DU-145 prostate
  GI50: 3.08 µM
  TGI: 14.4 µM
MDA-MB-468 breast
  GI50: 2060 nM
  TGI: 7.09 µM
SK-MEL-5 melanoma
  GI50: 6.62 µM
  TGI: 19.2 µM
MCF7 breast
  GI50: 747 nM
  TGI: 12.5 µM
TK-10 renal
  GI50: 6.35 µM
  TGI: 20.7 µM
UO-31 renal
  GI50: 605 nM
  TGI: 6.49 µM
SK-MEL-28 melanoma
  GI50: 7.93 µM
  TGI: 20.6 µM
SNB-19 CNS
  GI50: 3.21 µM
  TGI: 15.9 µM
BT-549 breast
  GI50: 6.52 µM
  TGI: 22.7 µM
HL-60(TB) leukemia
  GI50: 3.06 µM
  TGI: 14.4 µM
HT29 colon
  GI50: 1520 nM
  TGI: 3.6 µM
NCI-H460 lung
  GI50: 634 nM
  TGI: 1930 nM
ACHN renal
  GI50: 1740 nM
  TGI: 5.3 µM
MOLT-4 leukemia
  GI50: 1170 nM
  TGI: 6.54 µM
UACC-62 melanoma
  GI50: 1910 nM
  TGI: 11.8 µM
A498 renal
  GI50: 6.15 µM
  TGI: 20.9 µM
MDA-MB-435
  GI50: 3.67 µM
  TGI: 14.3 µM
SR leukemia
  GI50: 523 nM
  TGI: 9.37 µM
KM12 colon
  GI50: 5.51 µM
  TGI: 22.6 µM
U251 CNS
  GI50: 1250 nM
  TGI: 4.21 µM
HCT-116 colon
  GI50: 1500 nM
  TGI: 6.19 µM
LOX IMVI melanoma
  GI50: 1190 nM
  TGI: 2470 nM
COLO 205 colon
  GI50: 3.11 µM
  TGI: 20.2 µM
RPMI-8226 leukemia
  GI50: 2550 nM
  TGI: 36 µM
UACC-257 melanoma
  GI50: 10.6 µM
  TGI: 25.3 µM
OVCAR-4 ovarian
  GI50: 5.76 µM
  TGI: 20.8 µM
NCI-H522 lung
  GI50: 1860 nM
  TGI: 15.1 µM
K-562 leukemia
  GI50: 1780 nM
  TGI: > 100 µM
SF-268 CNS
  GI50: 4.81 µM
  TGI: 24 µM
OVCAR-5 ovarian
  GI50: 2620 nM
  TGI: 10.6 µM
HS 578T breast
  GI50: 11.2 µM
  TGI: 29.7 µM
HCT-15 colon
  GI50: 3.44 µM
  TGI: 15.5 µM
MDA-MB-231 breast
  GI50: 2010 nM
  TGI: 5.72 µM
CCRF-CEM leukemia
  GI50: 2370 nM
  TGI: 42.2 µM
A549 NSCLC
  GI50: 1280 nM
  TGI: 16.6 µM
SW-620 colon
  GI50: 997 nM
  TGI: 11.9 µM
